Legend:
[1] = test system: influenza A virus A/WSN-HK (H3N1); format: cell-based
[2] = test system: influenza B virus strain Massachusetts/6/93

Structure (SMILES)	titer of infectious virus particles over infection sequences [1]	reduction of the number of newly formed infectious influenza B virus particles [2]
N#CC(=C(N)Sc1ccccc1N)C(C#N)=C(N)Sc1ccccc1N [U0126, 1,4-diamino-2,3-dicyano-1,4-bis(2-aminophenylthio)butadiene]	significant reduction of the influenza virus particles	approx. 90%
NC12CC3CC(CC(C3)C1)C2 [amantadine, 1-adamantanamine]	increased, in spite of the amantadine treatment	–
